From patent US20250051375A1, “ANTI-HIV COMPOUNDS” (Gilead Sciences, Inc., priority 2023, published 2025)
≈ marks a conversion by molar mass, not a printed value.

Legend:
[1] = PBS Stability Assay; type: physicochemical; conditions: buffer, pH 7.4, 2 μM, phosphate buffered saline pH 7.4; read-out: PBS T½
How it was run: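 Test compound at 2 μM final was incubated in PBS, pH 7.4, and sampled at 0, 10, 20, 30, 60 and 120 min into acetonitrile/1% formic acid quench with labetalol internal standard. Remaining compound was quantified by LC-MS peak-area ratio, and half-life came from a first-order exponential fit.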

[2] = target: bovine intestinal alkaline phosphatase (Bos taurus (Bovine), UniProt P19111); assay: BiALP: conversion by bovine intestinal alkaline phosphatase; type: in vitro ADME; conditions: 2 μM substrate, 100 ng/mL iALP, Tris pH 7.8, 37° C., 60 minutes
Sequence of bovine intestinal alkaline phosphatase (P19111 20-506): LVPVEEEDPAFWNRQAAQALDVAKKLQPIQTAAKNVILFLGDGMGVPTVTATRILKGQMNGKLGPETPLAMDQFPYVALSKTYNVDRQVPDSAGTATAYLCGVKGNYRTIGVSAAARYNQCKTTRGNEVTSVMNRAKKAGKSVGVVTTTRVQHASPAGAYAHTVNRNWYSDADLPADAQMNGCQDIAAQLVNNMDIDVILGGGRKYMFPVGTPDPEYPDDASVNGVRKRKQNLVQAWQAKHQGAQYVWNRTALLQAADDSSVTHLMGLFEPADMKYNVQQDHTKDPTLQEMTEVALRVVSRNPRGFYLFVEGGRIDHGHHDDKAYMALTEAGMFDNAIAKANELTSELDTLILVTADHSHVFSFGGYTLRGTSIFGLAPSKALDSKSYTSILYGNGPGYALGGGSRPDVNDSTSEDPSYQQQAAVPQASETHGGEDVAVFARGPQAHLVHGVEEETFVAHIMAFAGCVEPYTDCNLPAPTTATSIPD
How it was run: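 Compounds at 2 μM final were incubated 60 min at 37° C in 0.1 M Tris-HCl pH 7.8 with 1 mM MgCl2 and 1 mM ZnCl2, with or without 100 ng/mL iALP (0.01 units/mL). Samples were quenched with acetonitrile/formic acid containing labetalol. Conversion was quantified by LC-MS peak area ratios against a 2 μM product standard.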

[3] = Solubility in FaSSIF; conditions: 23 °C, pH 6.5, fassif, thermodynamic from solid
How it was run: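 Concentration measured by HPLC-UV after solid compound was dosed at 5 mg/mL into pH 6.5 fasted-state simulated intestinal fluid containing taurocholate and lecithin (4:1 molar) and vortexed.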

[4] = Intestinal S9 Assay (human GI S9); type: in vitro ADME; conditions: human, 1.0 mg/mL S9 protein, TRIS pH 7.4, read-out: Human GI S9 T½
How it was run: (§1)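 Pooled dog or human intestinal S9 at 1.0 mg/mL protein in TRIS buffer pH 7.4 with ZnCl2 and MgCl2; compound at 2 μM, sampled 0–120 min and quenched. Remaining parent by LC-MS peak area ratio; half-life from first-order exponential decline fit.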

[5] = Intestinal S9 Assay (dog GI S9); type: in vitro ADME; conditions: dog, 1.0 mg/mL S9 protein, TRIS pH 7.4, read-out: Dog GI S9 T½
How it was run: as §1

[6] = tested on: HIV-1 IIIB strain; assay: MT-4 HIV Wild Type Virus Infection Assay (IIIB Virus); type: cell-based; conditions: Human immunodeficiency virus 1, IIIB, MT4, 120 h, MT-4 cells acutely infected with HIV-1 IIIB, 5 day incubation, Cell-titer glo
How it was run: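 MT-4 cells at 2×10^6 cells/ml in RPMI/10% FBS were acutely infected with HIV-1 IIIB for 1 h at 37° C, diluted 25× and added to serially diluted compounds. After 5 days at 37° C, viability read by CellTiter-Glo luminescence; EC50 from dose-response curves.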

Row | Compound | half-life at 2 μM [1] | [Compound] [2] | solubility at 2 h [3] | half-life at 2 μM [4] | half-life at 2 μM [5] | EC50 [6]
1 | COC(=O)N[C@H](C(=O)N[C@@H](Cc1ccc(C#Cc2cnc(N3CC4CCC(C3)N4C3COC3)nc2)cc1)[C@H](CN(Cc1c(F)cc(-c2ccn(C(F)F)n2)cc1F)NC(=O)[C@@H](NC(=O)OC)C(C)(C)C(F)(F)F)OC(=O)CC(C)(C)c1c(CC(=O)NCP(=O)(O)O)cc(C)cc1OP(=O)(O)O)C(C)(C)C(F)(F)F [Example 104] | 4.75 h | 1622.8 nM | 2730 µg/mL (≈ 1730 µM) | 2.1 h | 0.15 h | 17.6 nM
2 | COC(=O)N[C@H](C(=O)N[C@@H](Cc1ccc(C#Cc2cnc(N3CC4CCC(C3)N4C3COC3)nc2)cc1)[C@H](CN(Cc1c(F)cc(-c2ccn(C(F)F)n2)cc1F)NC(=O)[C@@H](NC(=O)OC)C(C)(C)C(F)(F)F)OC(=O)CC(C)(C)c1c(CC(=O)Nc2ccc(OC)c(S(=O)(=O)O)c2)cc(C)cc1OP(=O)(O)O)C(C)(C)C(F)(F)F [Example 107] | 6.36 h | 1468.1 nM | 3440 µg/mL (≈ 2060 µM) | 4.11 h | 2.21 h | 317 nM
3 | COC(=O)N[C@H](C(=O)N[C@@H](Cc1ccc(C#Cc2cnc(N3CC4CCC(C3)N4C3COC3)nc2)cc1)[C@H](CN(Cc1c(F)cc(-c2ccn(C(F)F)n2)cc1F)NC(=O)[C@@H](NC(=O)OC)C(C)(C)C(F)(F)F)OC(=O)CC(C)(C)c1c(CC(=O)N2CC[C@@H](C(=O)O)C2)cc(C)cc1OP(=O)(O)O)C(C)(C)C(F)(F)F [Example 112] | 6.53 h | 1708.7 nM | 3790 µg/mL (≈ 2400 µM) | 9.55 h | 6.05 h | 224 nM
